Where two headings read alike, the source gives them in different places.
Experiments:
Smurf-1 = Smurf-1 (Homo sapiens, UniProt Q9HCE7); experiment: biochemical; type: biochemical; details: biochemical autoubiquitinylation TR-FRET, 45 min incubation, 8-point dose-response 3 nM to 10 uM
From the text: (§1) To determine the HECT E3 ligase selectivity of the compounds, a panel of biochemical HECT E3 ligase autoubiquitinylation assays was employed (Smurf-1, Smurf-2, WWP1, WWP2, ITCH, Nedd4, Nedd4L and E6AP). The conjugation of ubiquitin to a protein substrate is a multistep process. In an initial ATP-requiring step, a thioester bond is formed between the carboxyl terminus of ubiquitin and an internal cystein residue of the ubiquitin-activating enzyme (E1). Activated ubiquitin is then transferred to a specific cystein residue of an ubiquitin-conjugating enzyme (E2). E2s donate ubiquitin to a HECT E3 ligase (E3) from which it is transferred to the substrate protein. HECT E3 ligases can auto-ubiquitinylate. This event is detected in the TR-FRET (Time-Resolved Fluorescence Resonance Energy Transfer) assay used in this panel. The reaction mix contains E1, E2, tagged-E3, biotin-conjugated ubiquitin, the compound and ATP in a suitable buffer and is incubated for 45 minutes to allow auto-ubiquitinylation of the E3 ligase. To measure the extent of ubiquitinylated E3 ligase by TR-FRET, the donor fluorophore Europium cryptate (Eu3+ cryptate), conjugated to streptavidin which subsequently binds to biotinylated ubiquitin, and the modified allophycocyanin XL665 (HTRF® primary acceptor fluorophore) coupled to a tag-specific antibody (HA, His or GST), which recognizes the respective E3 ligase fusion proteins, are added after the reaction is complete. When these two fluorophores are brought together by a biomolecular interaction (in this case ubiquitinylation of the E3 ligase), a portion of the energy captured by the Cryptate during excitation is released through fluorescence emission at 620 nm, while the remaining energy is transferred to XL665. This energy is then released by XL665 as specific fluorescence at 665 nm. Light at 665 nm is emitted only through FRET with Europium.
(§2) Test and reference compounds are prepared at 180×[final] in 90% DMSO, and diluted 1:3 in 90% DMSO.
(§3) For the biochemical assay panel, 50 nl of the test compounds, reference compounds and buffer/DMSO control are transferred to the respective wells of a 384-well white GREINER “SMALL VOLUME” PS plate. The assay panel is run at room temperature on a Biomek FX liquid handling workstation. To the assay plates containing 50 nl compound or control solutions in 90% DMSO, 4.5 ul of E3 ligase solution were added per well, followed by 4.5 ul of the pre-incubated E1/E2/Ub mix or the pre-diluted ubiquitin (LOW control). Plates are shaken vigorously after each addition. In this assay the compound concentrations range from 3 nM to 10 uM in an 8-point dose-response curve.
(§4) After an incubation time of 45 min in the dark, the plates are transferred into the Pherastar fluorescence reader to measure the TR-FRET signal.

Smurf-2 = Smurf-2 (Homo sapiens, UniProt Q9HAU4); experiment: HECT E3 ligase autoubiquitinylation TR-FRET assay, Smurf-2; type: biochemical
From the text: as §1, §2, §3, §4

[1] = biochemical autoubiquitinylation TR-FRET, 45 min incubation, 8-point dose-response 3 nM to 10 uM, read-out: Smurf-2/IC50

Chain of Smurf-2 (Q9HAU4 whole entry, species assumed): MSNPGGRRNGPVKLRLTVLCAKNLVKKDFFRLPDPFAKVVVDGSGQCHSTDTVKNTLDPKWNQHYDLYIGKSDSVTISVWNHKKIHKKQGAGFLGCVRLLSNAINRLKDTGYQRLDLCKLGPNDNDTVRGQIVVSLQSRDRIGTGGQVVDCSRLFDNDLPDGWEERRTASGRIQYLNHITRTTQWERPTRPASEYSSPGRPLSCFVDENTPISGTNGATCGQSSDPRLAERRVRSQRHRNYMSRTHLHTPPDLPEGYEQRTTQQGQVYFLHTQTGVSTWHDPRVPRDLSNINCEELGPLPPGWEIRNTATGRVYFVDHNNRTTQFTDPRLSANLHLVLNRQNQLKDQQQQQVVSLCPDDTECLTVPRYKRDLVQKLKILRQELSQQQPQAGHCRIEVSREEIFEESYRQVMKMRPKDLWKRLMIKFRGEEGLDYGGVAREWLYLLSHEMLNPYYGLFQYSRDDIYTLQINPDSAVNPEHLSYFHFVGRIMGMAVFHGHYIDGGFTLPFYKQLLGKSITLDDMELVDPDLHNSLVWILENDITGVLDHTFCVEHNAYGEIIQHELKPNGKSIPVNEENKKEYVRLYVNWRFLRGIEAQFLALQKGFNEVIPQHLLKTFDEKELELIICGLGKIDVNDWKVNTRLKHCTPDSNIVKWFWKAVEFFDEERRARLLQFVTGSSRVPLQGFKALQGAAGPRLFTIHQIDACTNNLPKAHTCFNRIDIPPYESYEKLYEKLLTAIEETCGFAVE
Chain of Smurf-1 (Q9HCE7 whole entry): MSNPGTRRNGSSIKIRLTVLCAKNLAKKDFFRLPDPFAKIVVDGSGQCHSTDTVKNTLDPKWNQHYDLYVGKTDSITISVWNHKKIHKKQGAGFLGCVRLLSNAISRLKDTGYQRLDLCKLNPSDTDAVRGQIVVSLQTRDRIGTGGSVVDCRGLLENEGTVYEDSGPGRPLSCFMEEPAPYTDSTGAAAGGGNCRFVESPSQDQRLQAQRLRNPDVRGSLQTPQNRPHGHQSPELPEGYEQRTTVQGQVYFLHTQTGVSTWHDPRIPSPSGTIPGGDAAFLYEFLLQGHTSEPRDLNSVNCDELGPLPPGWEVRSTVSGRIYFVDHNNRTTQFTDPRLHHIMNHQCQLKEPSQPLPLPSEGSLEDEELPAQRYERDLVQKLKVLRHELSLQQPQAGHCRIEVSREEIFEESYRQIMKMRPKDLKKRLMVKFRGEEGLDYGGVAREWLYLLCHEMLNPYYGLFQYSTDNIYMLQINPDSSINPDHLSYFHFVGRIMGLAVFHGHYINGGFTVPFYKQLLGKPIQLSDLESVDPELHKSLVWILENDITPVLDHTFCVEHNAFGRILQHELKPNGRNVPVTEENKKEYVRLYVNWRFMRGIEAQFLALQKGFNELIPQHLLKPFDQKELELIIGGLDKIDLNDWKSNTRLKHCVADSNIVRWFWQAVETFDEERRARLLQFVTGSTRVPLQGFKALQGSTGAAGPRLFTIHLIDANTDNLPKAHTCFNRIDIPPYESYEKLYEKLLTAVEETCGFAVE

Compound: Cc1c(NC(=O)c2noc3c2CCc2cc(CC(C)C)ccc2-3)c(=O)n(-c2ccccc2)n1C [Example 1, N-(1,5-Dimethyl-3-oxo-2-phenyl-2,3-dihydro-1H-pyrazol-4-yl)-7-isobutyl-4,5-dihydronaphtho[2,1-d]isoxazole-3-carboxamide]
- IC50 (Smurf-1): 240 nM
- IC50 (Smurf-2; [1]): 5600 nM

Compound: COc1ccc2c(c1)CCCc1c(C(=O)Nc3c(C)n(C)n(-c4ccc(F)cc4)c3=O)noc1-2 [Example 2, N-(2-(4-Fluorophenyl)-1,5-dimethyl-3-oxo-2,3-dihydro-1H-pyrazol-4-yl)-8-methoxy-5,6-dihydro-4H-benzo[3,4]cyclohepta[1,2-d]isoxazole-3-carboxamide]
- IC50 (Smurf-1): 410 nM
- IC50 (Smurf-2; [1]): 8550 nM

Compound: Cc1c(NC(=O)c2noc3c2CCCc2cc(OC(F)(F)F)ccc2-3)c(=O)n(-c2ccccc2F)n1C [Example 3, N-(2-(2-Fluorophenyl)-1,5-dimethyl-3-oxo-2,3-dihydro-1H-pyrazol-4-yl)-8-(trifluoromethoxy)-5,6-dihydro-4H-benzo[3,4]cyclohepta[1,2-d]isoxazole-3-carboxamide]
- IC50 (Smurf-1): 17 nM
- IC50 (Smurf-2; [1]): 830 nM

Compound: Cc1c(NC(=O)c2noc3c2CCSc2cc(OC(F)(F)F)ccc2-3)c(=O)n(C2CCCCC2)n1C [Example 4, N-(2-Cyclohexyl-1,5-dimethyl-3-oxo-2,3-dihydro-1H-pyrazol-4-yl)-8-(trifluoromethoxy)-4,5-dihydrobenzo[6,7]thiepino[4,5-d]isoxazole-3-carboxamide]
- IC50 (Smurf-1): 2.6 nM
- IC50 (Smurf-2; [1]): 725 nM

Compound: COc1ccc2c(c1)CCCCc1c(C(=O)Nc3c(C)n(C)n(C4CCCCC4)c3=O)noc1-2 [Example 5, N-(2-Cyclohexyl-1,5-dimethyl-3-oxo-2,3-dihydro-1H-pyrazol-4-yl)-9-methoxy-4,5,6,7-tetrahydrobenzo[3,4]cycloocta[1,2-d]isoxazole-3-carboxamide]
- IC50 (Smurf-1): 91.8 nM
- IC50 (Smurf-2; [1]): 8350 nM

Compound: CCc1ccc2c(c1)CCc1c(C(=O)Nc3c(C)n(C)n(-c4ccccc4)c3=O)noc1-2 [Example 7, N-(1,5-dimethyl-3-oxo-2-phenyl-2,3-dihydro-1H-pyrazol-4-yl)-7-ethyl-4,5-dihydronaphtho[2,1-d]isoxazole-3-carboxamide]
- IC50 (Smurf-1): 568 nM
- IC50 (Smurf-2): > 10000 nM

Compound: Cc1ccc(-n2c(=O)c(NC(=O)c3noc4c3CCc3cc(OC(C)C)ccc3-4)c(C)n2C)cc1 [Example 11, N-(1,5-dimethyl-3-oxo-2-(p-tolyl)-2,3-dihydro-1H-pyrazol-4-yl)-7-isopropoxy-4,5-dihydronaphtho[2,1-d]isoxazole-3-carboxamide]
- IC50 (Smurf-1): 1420 nM
- IC50 (Smurf-2): > 10000 nM

Compound: CCc1ccc2c(c1)CCCc1c(C(=O)Nc3c(C)n(C)n(-c4ccc(F)cc4)c3=O)noc1-2 [Example 13, 8-ethyl-N-(2-(4-fluorophenyl)-1,5-dimethyl-3-oxo-2,3-dihydro-1H-pyrazol-4-yl)-5,6-dihydro-4H-benzo[3,4]cyclohepta[1,2-d]isoxazole-3-carboxamide]
- IC50 (Smurf-1): 272 nM
- IC50 (Smurf-2; [1]): 7850 nM

Compound: COc1ccc2c(c1)CCCc1c(C(=O)Nc3c(C)n(C)n(-c4ccc(C)cc4C)c3=O)noc1-2 [Example 22, N-(2-(2,4-dimethylphenyl)-1,5-dimethyl-3-oxo-2,3-dihydro-1H-pyrazol-4-yl)-8-methoxy-5,6-dihydro-4H-benzo[3,4]cyclohepta[1,2-d]isoxazole-3-carboxamide]
- IC50 (Smurf-1): 495 nM
- IC50 (Smurf-2): > 10000 nM

Compound: COc1ccc2c(c1)CCCc1c(C(=O)Nc3c(C)n(C)n(-c4ccccc4Cl)c3=O)noc1-2 [Example 27, N-(2-(2-chlorophenyl)-1,5-dimethyl-3-oxo-2,3-dihydro-1H-pyrazol-4-yl)-8-methoxy-5,6-dihydro-4H-benzo[3,4]cyclohepta[1,2-d]isoxazole-3-carboxamide]
- IC50 (Smurf-1): 125 nM
- IC50 (Smurf-2; [1]): 5800 nM

Compound: COc1ccc2c(c1)CCCc1c(C(=O)Nc3c(C)n(C)n(-c4cccc(Cl)c4)c3=O)noc1-2 [Example 28, N-(2-(3-chlorophenyl)-1,5-dimethyl-3-oxo-2,3-dihydro-1H-pyrazol-4-yl)-8-methoxy-5,6-dihydro-4H-benzo[3,4]cyclohepta[1,2-d]isoxazole-3-carboxamide]
- IC50 (Smurf-1): 660 nM
- IC50 (Smurf-2): > 10000 nM

Compound: COc1ccc2c(c1)CCCc1c(C(=O)Nc3c(C)n(C)n(-c4ccc(Cl)cc4)c3=O)noc1-2 [Example 29, N-(2-(4-chlorophenyl)-1,5-dimethyl-3-oxo-2,3-dihydro-1H-pyrazol-4-yl)-8-methoxy-5,6-dihydro-4H-benzo[3,4]cyclohepta[1,2-d]isoxazole-3-carboxamide]
- IC50 (Smurf-1): 1060 nM
- IC50 (Smurf-2): > 10000 nM

Compound: CCn1c(C)c(NC(=O)c2noc3c2CCCc2cc(OC)ccc2-3)c(=O)n1-c1ccccc1Cl [Example 30, N-(2-(2-chlorophenyl)-1-ethyl-5-methyl-3-oxo-2,3-dihydro-1H-pyrazol-4-yl)-8-methoxy-5,6-dihydro-4H-benzo[3,4]cyclohepta[1,2-d]isoxazole-3-carboxamide]
- IC50 (Smurf-1): 680 nM
- IC50 (Smurf-2; [1]): 6850 nM

Compound: COc1ccc2c(c1)CCCc1c(C(=O)Nc3c(C)n(C)n(Cc4ccccc4)c3=O)noc1-2 [Example 32, N-(2-benzyl-1,5-dimethyl-3-oxo-2,3-dihydro-1H-pyrazol-4-yl)-8-methoxy-5,6-dihydro-4H-benzo[3,4]cyclohepta[1,2-d]isoxazole-3-carboxamide]
- IC50 (Smurf-1): 695 nM
- IC50 (Smurf-2): > 10000 nM

Compound: COc1ccc2c(c1)CCCc1c(C(=O)Nc3c(C)n(C)n(C4CCCC4)c3=O)noc1-2 [Example 34, N-(2-cyclopentyl-1,5-dimethyl-3-oxo-2,3-dihydro-1H-pyrazol-4-yl)-8-methoxy-5,6-dihydro-4H-benzo[3,4]cyclohepta[1,2-d]isoxazole-3-carboxamide]
- IC50 (Smurf-1): 29.2 nM
- IC50 (Smurf-2; [1]): 9500 nM

Compound: COc1ccc2c(c1)CCCc1c(C(=O)Nc3c(C)n(C)n(C4CCCCC4)c3=O)noc1-2 [Example 35, N-(2-cyclohexyl-1,5-dimethyl-3-oxo-2,3-dihydro-1H-pyrazol-4-yl)-8-methoxy-5,6-dihydro-4H-benzo[3,4]cyclohepta[1,2-d]isoxazole-3-carboxamide]
- IC50 (Smurf-1): 5.9 nM
- IC50 (Smurf-2; [1]): 1050 nM

Compound: COc1ccc2c(c1)CCCc1c(C(=O)Nc3c(C)n(C)n(CC4CCCCC4)c3=O)noc1-2 [Example 37, N-(2-(cyclohexylmethyl)-1,5-dimethyl-3-oxo-2,3-dihydro-1H-pyrazol-4-yl)-8-methoxy-5,6-dihydro-4H-benzo[3,4]cyclohepta[1,2-d]isoxazole-3-carboxamide]
- IC50 (Smurf-1): 1040 nM
- IC50 (Smurf-2): > 10000 nM

Compound: Cc1c(NC(=O)c2noc3c2CCCc2cc(OC(F)(F)F)ccc2-3)c(=O)n(Cc2ccccc2F)n1C [Example 43, N-(2-(2-fluorobenzyl)-1,5-dimethyl-3-oxo-2,3-dihydro-1H-pyrazol-4-yl)-8-(trifluoromethoxy)-5,6-dihydro-4H-benzo[3,4]cyclohepta[1,2-d]isoxazole-3-carboxamide]
- IC50 (Smurf-1): 58 nM

Compound: COc1ccc2c(c1)CCCc1c(C(=O)Nc3c(C)n(C)n(Cc4ccc(F)cc4)c3=O)noc1-2 [Example 57, N-(2-(4-fluorobenzyl)-1,5-dimethyl-3-oxo-2,3-dihydro-1H-pyrazol-4-yl)-8-methoxy-5,6-dihydro-4H-benzo[3,4]cyclohepta[1,2-d]isoxazole-3-carboxamide]
- IC50 (Smurf-1): 2700 nM

From patent publication US20170088546A1 (priority 2014, published 2017)
